Measured values as given in patent US20250223268A1, “4-Methylsulfonylbenzamide Compound, Preparation Method, Herbicidal Composition And Use” (Jiangsu Flag Chemical Industry Co., Ltd., priority 2022, published 2025).

How the values were obtained:
Assay in all cases: Greenhouse herbicidal activity assay, post-emergence
Format in all cases: in vivo
Cyperus iria = settings: Post-emergence test, rate 150 g a.i./hm^2, grade by fresh weight inhibition rate
Description: (§1) Post-emergence: Seeds of gramineous weeds (Echinochloa crusgalli, Echinochloa crusgalli var. zelayensis, Echinochloa phyllopogon, Eleusine indica, Digitaria sanguinalis, Leptochloa chinensis, Setaria viridis, Alopecurus japonicus Steud, Beckmannia syzigachne, Polypogon fugax, Alopecurus aequalis, Lolium multiflorum, Poa annua, Aegilops tataschii, Avena fatua, Alopecurus myosuroides, Bromus japonicus), broadleaf weeds (Eclipta prostrata, Amaranthus retroflexus, Rorippa indica, Myosoton aquaticum, Veronica didyma, Galium aparine, Solanum nigrum, Xanthium sibiricum, Conyza canadensis, Sesbania cannabina, Sagittaria trifolia), and Cyperus iria (Cyperus iria, Scirpus juncoides, Cyperus difformis, etc.) were sown in plastic pots (7 cm diameter) with nutrient soil and bottom holes. Crop seeds (including Oryza sativa subsp. indica, Oryza sativa subsp. japonica, Oryza sativa L. var. Glutinosa matsum, Triticum aestivum, Zea mays, Sorghum bicolor, Setaria italica, Glycine max, Gossypium hirsutum, Brassica napus, Arachis hypogaea) were sown in plastic pots (10 cm diameter) with nutrient soil and bottom holes. After sowing, the pots were placed in the growth chamber until the plants reached the 3-6 leaf stage for foliar spraying. Post-treatment, the materials were air-dried naturally and returned to the growth chamber. Results were assessed 14-21 days later.
(§2) • A: Fresh weight inhibition rate≥80% to 100%; • B: Fresh weight inhibition rate[…] to <80%; • C: Fresh weight inhibition rate≥40% to <60%; • D: Fresh weight inhibition rate≥20% to <40%; • E: Fresh weight inhibition rate<20%; • NT: Not tested.

Leptochloa chinensis = settings: Post-emergence test, rate 150 g a.i./hm^2, grade by fresh weight inhibition rate
Description: as §1, §2

Eclipta prostrata = settings: Post-emergence test, rate 150 g a.i./hm^2; grade by fresh weight inhibition rate
Description: as §1, §2

Echinochloa crusgalli = settings: Post-emergence test, rate 150 g a.i./hm^2, grade by fresh weight inhibition rate; for pest or weed control at 150 g/ha: Echinochloa crus-galli, read-out: Control efficacy grade, Echinochloa crusgalli
Description: as §1, §2

SMILES	Control efficacy grade, Cyperus iria (Cyperus iria)	Control efficacy grade, Leptochloa chinensis (Leptochloa chinensis)	Control efficacy grade, Eclipta prostrata (Eclipta prostrata)	Control efficacy grade, Echinochloa crusgalli (Echinochloa crusgalli)	pest or weed control at 150 g/ha (Echinochloa crusgalli)	pest or weed control at 150 g/ha (Cyperus iria; Cyperus iria, read-out: Control efficacy grade, Cyperus iria)	pest or weed control at 150 g/ha (Leptochloa chinensis; Dinebra chinensis, read-out: Control efficacy grade, Leptochloa chinensis)
CCC(C)[S+]([O-])c1c(S(C)(=O)=O)ccc(C(=O)Nc2nnc(C(C)C)o2)c1Cl (mixture of isomers) [Compound 3-517]	B (Fresh weight inhibition rate≥260% to <80%)	A (Fresh weight inhibition rate≥80% to 100%)	A (Fresh weight inhibition rate≥80% to 100%)	–	–	–	–
CCC(C)[S+]([O-])c1c(S(C)(=O)=O)ccc(C(=O)N(C)c2nnc(C)o2)c1Cl (mixture of isomers) [Compound 3-820]	–	–	–	A (Fresh weight inhibition rate≥80% to 100%)	–	–	–
CCC(C)[S+]([O-])c1c(S(C)(=O)=O)ccc(C(=O)Nc2nonc2C)c1Cl (mixture of isomers) [Compound 4-19]	A (Fresh weight inhibition rate≥80% to 100%)	A (Fresh weight inhibition rate≥80% to 100%)	A (Fresh weight inhibition rate≥80% to 100%)	–	–	–	–
CCC(C)Sc1c(S(C)(=O)=O)ccc(C(=O)Nc2nnnn2C)c1Cl (racemic) [Compound 1-16]	B (Fresh weight inhibition rate≥260% to <80%)	A (Fresh weight inhibition rate≥80% to 100%)	A (Fresh weight inhibition rate≥80% to 100%)	A (Fresh weight inhibition rate≥80% to 100%)	–	–	–
Cn1nnnc1NC(=O)c1ccc(S(C)(=O)=O)c([S+]([O-])C2CCCC2)c1Cl (racemic) [Compound 1-43]	A (Fresh weight inhibition rate≥80% to 100%)	A (Fresh weight inhibition rate≥80% to 100%)	A (Fresh weight inhibition rate≥80% to 100%)	A (Fresh weight inhibition rate≥80% to 100%)	–	–	–
CCC[S+]([O-])c1c(S(C)(=O)=O)ccc(C(=O)N(C)c2nnnn2C)c1Cl (racemic) [Compound 1-98]	A (Fresh weight inhibition rate≥80% to 100%)	A (Fresh weight inhibition rate≥80% to 100%)	–	A (Fresh weight inhibition rate≥80% to 100%)	–	–	–
CCC(C)Sc1c(S(C)(=O)=O)ccc(C(=O)Nc2ncnn2C)c1Cl (racemic) [Compound 2-16]	A (Fresh weight inhibition rate≥80% to 100%)	A (Fresh weight inhibition rate≥80% to 100%)	A (Fresh weight inhibition rate≥80% to 100%)	–	–	–	–
CCC[S+]([O-])c1c(S(C)(=O)=O)ccc(C(=O)N(C)c2ncnn2C)c1Cl (racemic) [Compound 2-78]	–	–	–	A (Fresh weight inhibition rate≥80% to 100%)	–	–	–
Cc1nnc(NC(=O)c2ccc(S(C)(=O)=O)c([S+]([O-])CCC#N)c2Cl)o1 (racemic) [Compound 3-198]	A (Fresh weight inhibition rate≥80% to 100%)	A (Fresh weight inhibition rate≥80% to 100%)	A (Fresh weight inhibition rate≥80% to 100%)	–	–	–	–
CCc1nnc(NC(=O)c2ccc(S(C)(=O)=O)c(SC(C)CC)c2Cl)o1 (racemic) [Compound 3-398]	A (Fresh weight inhibition rate≥80% to 100%)	A (Fresh weight inhibition rate≥80% to 100%)	–	B (Fresh weight inhibition rate≥260% to <80%)	–	–	–
CC(C)c1nnc(NC(=O)c2ccc(S(C)(=O)=O)c([S+]([O-])C(C)C)c2Cl)o1 (racemic) [Compound 3-505]	A (Fresh weight inhibition rate≥80% to 100%)	A (Fresh weight inhibition rate≥80% to 100%)	A (Fresh weight inhibition rate≥80% to 100%)	–	–	–	–
CC(C)c1nnc(N(C)C(=O)c2ccc(S(C)(=O)=O)c([S+]([O-])C(C)C)c2Cl)o1 (racemic) [Compound 3-808]	–	–	–	B (Fresh weight inhibition rate≥260% to <80%)	–	–	–
CC(C)[S+]([O-])c1c(S(C)(=O)=O)ccc(C(=O)N(C)c2nnc(C3CC3)o2)c1Cl (racemic) [Compound 3-809]	–	–	–	B (Fresh weight inhibition rate≥260% to <80%)	–	–	–
Cc1nnc(N(C)C(=O)c2ccc(S(C)(=O)=O)c([S+]([O-])C3CC3)c2Cl)o1 (racemic) [Compound 3-812]	–	B (Fresh weight inhibition rate≥260% to <80%)	A (Fresh weight inhibition rate≥80% to 100%)	B (Fresh weight inhibition rate≥260% to <80%)	–	–	–
CCc1nnc(N(C)C(=O)c2ccc(S(C)(=O)=O)c([S+]([O-])C3CC3)c2Cl)o1 (racemic) [Compound 3-813]	B (Fresh weight inhibition rate≥260% to <80%)	B (Fresh weight inhibition rate≥260% to <80%)	A (Fresh weight inhibition rate≥80% to 100%)	–	–	–	–
CCCC[S+]([O-])c1c(S(C)(=O)=O)ccc(C(=O)N(C)c2nnc(C)o2)c1Cl (racemic) [Compound 3-815]	–	–	–	B (Fresh weight inhibition rate≥260% to <80%)	–	–	–
Cc1nnc(N(C)C(=O)c2ccc(S(C)(=O)=O)c([S+]([O-])CC(C)C)c2Cl)o1 (racemic) [Compound 3-829]	–	B (Fresh weight inhibition rate≥260% to <80%)	–	A (Fresh weight inhibition rate≥80% to 100%)	–	–	–
Cc1nnc(N(C)C(=O)c2ccc(S(C)(=O)=O)c([S+]([O-])CC(F)(F)F)c2Cl)o1 (racemic) [Compound 3-832]	–	–	–	A (Fresh weight inhibition rate≥80% to 100%)	–	–	–
Cc1nnc(N(C)C(=O)c2ccc(S(C)(=O)=O)c([S+]([O-])CCCl)c2Cl)o1 (racemic) [Compound 3-835]	–	–	–	A (Fresh weight inhibition rate≥80% to 100%)	–	–	–
Cn1nnnc1NC(=O)c1ccc(S(C)(=O)=O)c(SC2CCC2)c1Cl [Compound 1-37]	A (Fresh weight inhibition rate≥80% to 100%)	–	A (Fresh weight inhibition rate≥80% to 100%)	A (Fresh weight inhibition rate≥80% to 100%)	–	–	–
Cn1ncnc1NC(=O)c1ccc(S(C)(=O)=O)c(SC2CCCC2)c1Cl [Compound 2-42]	A (Fresh weight inhibition rate≥80% to 100%)	A (Fresh weight inhibition rate≥80% to 100%)	A (Fresh weight inhibition rate≥80% to 100%)	–	–	–	–
CCCCS(=O)(=O)c1c(S(C)(=O)=O)ccc(C(=O)Nc2nnco2)c1Cl [Compound 3-281]	A (Fresh weight inhibition rate≥80% to 100%)	A (Fresh weight inhibition rate≥80% to 100%)	A (Fresh weight inhibition rate≥80% to 100%)	–	–	–	–
CC(C)CS(=O)(=O)c1c(S(C)(=O)=O)ccc(C(=O)Nc2nnco2)c1Cl [Compound 3-297]	A (Fresh weight inhibition rate≥80% to 100%)	B (Fresh weight inhibition rate≥260% to <80%)	A (Fresh weight inhibition rate≥80% to 100%)	–	–	–	–
CCc1nnc(NC(=O)c2ccc(S(C)(=O)=O)c(SC(C)C)c2Cl)o1 [Compound 3-388, 2-chloro-N-(5-ethyl-1,3,4-oxadiazol-2-yl)-3-(isopropylthio)-4-(methylsulfonyl)benzamide]	–	–	–	–	80 to 100%	80 to 100%	80 to 100%
CCc1nnc(NC(=O)c2ccc(S(C)(=O)=O)c(S(=O)(=O)CC(C)C)c2Cl)o1 [Compound 3-413]	A (Fresh weight inhibition rate≥80% to 100%)	A (Fresh weight inhibition rate≥80% to 100%)	A (Fresh weight inhibition rate≥80% to 100%)	–	–	–	–
CC(C)c1nnc(NC(=O)c2ccc(S(C)(=O)=O)c(SC3CC3)c2Cl)o1 [Compound 3-535]	A (Fresh weight inhibition rate≥80% to 100%)	B (Fresh weight inhibition rate≥260% to <80%)	–	B (Fresh weight inhibition rate≥260% to <80%)	–	–	–
C=CCSc1c(S(C)(=O)=O)ccc(C(=O)Nc2nnc(C(C)C)o2)c1Cl [Compound 3-570]	A (Fresh weight inhibition rate≥80% to 100%)	B (Fresh weight inhibition rate≥260% to <80%)	A (Fresh weight inhibition rate≥80% to 100%)	–	–	–	–
CCCSc1c(S(C)(=O)=O)ccc(C(=O)N(C)c2nnc(C)o2)c1Cl [Compound 3-786, 2-chloro-N-methyl-N-(5-methyl-1,3,4-oxadiazol-2-yl)-4-(methylsulfonyl)-3-(propylthio)benzamide]	–	–	–	–	80 to 260%	–	–
